Laboratory results: PMC3146629 (2011)

Biological target: HSPA8 (Hsc70) (Bos taurus, UniProt P19120)
Assay: […]-1H TROSY NMR titration
Type: binding

Chain of HSPA8 (Hsc70) (P19120 1-383): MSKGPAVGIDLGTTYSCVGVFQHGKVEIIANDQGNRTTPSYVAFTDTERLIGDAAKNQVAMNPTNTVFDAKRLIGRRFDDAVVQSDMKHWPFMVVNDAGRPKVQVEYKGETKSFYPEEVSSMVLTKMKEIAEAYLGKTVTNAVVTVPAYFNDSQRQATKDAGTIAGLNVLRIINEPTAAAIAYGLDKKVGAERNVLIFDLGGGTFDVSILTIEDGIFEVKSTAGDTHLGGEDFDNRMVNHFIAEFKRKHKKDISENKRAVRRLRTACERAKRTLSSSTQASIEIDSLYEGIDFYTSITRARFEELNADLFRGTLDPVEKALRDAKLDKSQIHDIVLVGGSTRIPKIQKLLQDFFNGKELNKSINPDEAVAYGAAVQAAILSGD

Kd: < 10 µM
SMILES: CCn1c(=Cc2cccc[n+]2CC)sc(=C2Sc3ccccc3N2C)c1=O [MKT-077, 1-ethyl-2-[[3-ethyl-5-(3-methylbenzothiazolin-2-yliden)]-4-oxothiazolidin-2-ylidenemethyl] pyridinium chloride]
